Data from ChEMBL document CHEMBL1641592, “Benzopyrazine derivatives: A novel class of growth factor receptor bound protein 7 antagonists” (Bioorg Med Chem, 2011).

Columns and labels:
[1] = target: Growth factor receptor-bound protein 7 (Homo sapiens) (UniProt Q14451)
Description: Binding affinity to human GRB7 SH2-apo domain expressed in Escherichia coli BL21 (DE3) assessed as change in melting temperature at 100 uM by thermofluor based melting point shift assay

[2] = target: Growth factor receptor-bound protein 7 (Homo sapiens) (UniProt Q14451); remark: listed apart in the source
Description: Binding affinity to human GRB7 SH2-apo domain expressed in Escherichia coli BL21 (DE3) assessed as change in melting temperature at 200 uM by thermofluor based melting point shift assay

MDA-MB-468 = assay: Cytotoxicity against human MDA-MB-468 cells after 4 days by SRB assay; details: MDA-MB-468, 96 h

Chain of Growth factor receptor-bound protein 7 (Homo sapiens) (Q14451 whole entry): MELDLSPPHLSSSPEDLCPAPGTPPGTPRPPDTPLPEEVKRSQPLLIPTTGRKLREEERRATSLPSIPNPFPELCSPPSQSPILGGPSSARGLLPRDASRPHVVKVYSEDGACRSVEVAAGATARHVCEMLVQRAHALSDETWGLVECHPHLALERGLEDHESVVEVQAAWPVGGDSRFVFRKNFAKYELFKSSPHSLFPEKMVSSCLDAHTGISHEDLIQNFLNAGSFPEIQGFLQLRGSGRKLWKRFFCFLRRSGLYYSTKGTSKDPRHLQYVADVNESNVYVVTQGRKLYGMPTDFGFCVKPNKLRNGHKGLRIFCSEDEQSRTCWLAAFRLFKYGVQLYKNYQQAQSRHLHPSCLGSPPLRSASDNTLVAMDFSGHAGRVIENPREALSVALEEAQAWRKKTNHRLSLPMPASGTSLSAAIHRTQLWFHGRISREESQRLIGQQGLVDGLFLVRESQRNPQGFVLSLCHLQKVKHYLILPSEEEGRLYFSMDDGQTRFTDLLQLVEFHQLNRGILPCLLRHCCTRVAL

Row | Structure (SMILES) | ΔTm [1] [°C] | ΔTm [2] [°C] | IC50 (MDA-MB-468) [µM]
1 | COC(=O)C(=O)C(C(=O)C(=O)Nc1ccccc1C(N)=O)c1nc2ccc(C(=O)c3ccccc3)cc2nc1O (stereo not drawn) | – | – | 86
2 | C[C@@H](O)[C@@H]1NC(=O)[C@H](CC(N)=O)NC(=O)[C@H](CC(=O)O)NC(=O)[C@H](Cc2ccc(O)cc2)NC(=O)CNC(=O)[C@@H](CCC(=O)O)NC(=O)[C@H](Cc2ccccc2)NC(=O)[C@H](Cc2c[nH]c3ccccc23)NC(=O)CSC[C@@H](C(=O)O)NC(=O)[C@@H]2CCCN2C(=O)[C@H](Cc2ccccc2)NC1=O | 1.35 | 1.85 | –
3 | COC(=O)C(=O)C(C(=O)C(=O)Nc1ccc(C(N)=O)cc1)c1nc2ccc([N+](=O)[O-])cc2nc1O (stereo not drawn) | 0.45 | 0.85 | –
4 | COC(=O)C(=O)C(C(=O)C(=O)Nc1ccccc1C(C)=O)c1nc2ccc(C(=O)c3ccccc3)cc2nc1O (stereo not drawn) | 0.05 | 0.55 | –

Now from value to compound, other results behind:

Row | ΔTm [1] [°C] | ΔTm [2] [°C] | Structure (SMILES) | IC50 (MDA-MB-468) [µM]
5 | 1.2 | 0.95 | COC(=O)C(=O)C(C(=O)C(=O)Nc1cc([N+](=O)[O-])ccc1C#N)c1nc2ccccc2nc1O (stereo not drawn) | –
6 | 0.9 | 0.6 | COC(=O)C(=O)C(C(=O)C(=O)Nc1cc(C)ccc1C)c1nc2ccccc2nc1O (stereo not drawn) | –
7 | 0.45 | 0.55 | COC(=O)C(=O)C(C(=O)C(=O)Nc1cccc(C(C)=O)c1)c1nc2ccc([N+](=O)[O-])cc2nc1O (stereo not drawn) | –
